TGI data for three compounds are collected here from PubChem BioAssay (NCI).

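How tested: cells in 96-well plates exposed to compound for 48 hours at five concentrations. At the TGI there is no net growth.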 Some results are limits rather than exact numbers.

Among the test systems are DMS 273 small cell lung; M19-MEL melanoma; P388 leukemia; P388/ADR leukemia; SN12K1 renal; SNB-78 CNS; XF 498 CNS; LXFL 529 NSCLC; RXF-631 renal.
Holding throughout (experiment): NCI tumour cell line growth inhibition, 48 h

With `N/C(=N\N=C\c1ccc2c(c1)OCCO2)NO`, the TGI in the experiment with DMS 273 small cell lung was 57.6 µM; with M19-MEL melanoma it was 98.6 µM; with P388 leukemia, 47.3 µM; in the experiment with P388/ADR leukemia, 40.5 µM; in the experiment with SN12K1 renal it was above 57.7 µM; in the experiment with SNB-78 CNS it was above 100 µM. In addition, the TGI in the experiment on XF 498 CNS is above 30.6 µM.
As for `COc1ccc(-c2cc3[nH]nc(N)c3c(=O)o2)cc1`, the TGI in the experiment with DMS 273 small cell lung, in the experiment on LXFL 529 NSCLC, in the experiment on SNB-78 CNS and in the experiment with XF 498 CNS was above 100 µM in each case.
On to `CCCCCCCCCCCCCCCCCCN(C)CC(COP(=O)([O-])OCC[N+](C)(C)C)OC` (configuration not stated), for which the TGI came out at 5.4 µM in the experiment with DMS 273 small cell lung; 21.6 µM in the experiment on LXFL 529 NSCLC; 13.1 µM in the experiment with M19-MEL melanoma; 43.7 µM in the experiment on RXF-631 renal; 21.3 µM in the experiment on SNB-78 CNS; 29.9 µM in the experiment with XF 498 CNS.
